According to patent publication US20220323490A1, “PREVENTION OF DISEASES IN HONEYBEES” (Arkema Inc., priority 2019, published 2022):
Entries after “also recorded” stand apart in the source; their conditions may differ. Like-named read-outs stand apart in the source and are kept apart here.

Experiments:
[1] = system: honeybee (Apis mellifera) workers; conditions: for X3, best estimate of EC5 concentration (Molar hydrogen peroxide): cubic model solution; for EC5 (Percent): percent H2O2 calculated from X3; for Predicted LC50 Log10 Molar (±se) / Predicted LC50 (Molar) / Predicted LC50 (Percent): oral, in 2M sucrose; for Predicted LC50 Log10 Molar (±se): Probit analysis; for Predicted LC50 (Molar): inverse of log10 data; for Predicted LC50 (Percent): percent hydrogen peroxide
Experimental: The twenty-four and forty-eight hour oral lethal concentration (LC50) of formulated hydrogen peroxide (HP) was determined for one-week and two-week old honeybee (Apis mellifera) workers fed a series of solutions of HP diluted in 2 Molar (M) sucrose.
Five hydrogen peroxide (HP) solutions at 4.7, 3.7, 2.7, 1.7, 0.7 M HP in 2 Molar (M) sucrose, and a 0.00 M HP 2M sucrose solution were prepared using 35% food grade hydrogen peroxide, molecular grade sucrose (Sigma Aldrich, USA), and molecular grade water (Sigma Aldrich, USA).
Approximately 200 bees were collected into several wooden cages, supplied with ad libitum HP-free 2M sucrose solution, water, and BeePro® supplemented pollen patty. Experimental trials commenced at seven and fourteen days after newly emerged honeybees were placed in cages.
Following this, an EC5 was calculated by solving the cubic (sigmoidal) model for ‘x’ given an intercept term constrained to zero (concentration) and a ‘y’ value of 0.05.

[2] = Stability of hydrogen peroxide in sugar solution; conditions: ambient temperature
[3] = one-week old honeybees, 24 Hour
[4] = one-week old honeybees, 48 Hour
[5] = two-week old honeybees, 24 Hour
[6] = two-week old honeybees, 48 Hour

OO [hydrogen peroxide]
Mean (±se) Mortality ([1]; 0.7 Molar H2O2 in 2M sucrose, one-week old honeybees, 24 Hour): 3.38 (1.38) | Mean (±se) Mortality ([1]; 0.7 Molar H2O2 in 2M sucrose, one-week old honeybees, 48 Hour): 9.63 (2.23) | Mean (±se) Mortality ([1]; 0.7 Molar H2O2 in 2M sucrose, two-week old honeybees, 24 Hour): 7.00 (2.19) | Mean (±se) Mortality ([1]; 0.7 Molar H2O2 in 2M sucrose, two-week old honeybees, 48 Hour): 12.75 (1.96) | Mean (±se) Mortality ([1]; 1.7 Molar H2O2 in 2M sucrose, one-week old honeybees, 24 Hour): 10.25 (1.42) | Mean (±se) Mortality ([1]; 1.7 Molar H2O2 in 2M sucrose, one-week old honeybees, 48 Hour): 18.13 (1.06) | Mean (±se) Mortality ([1]; 1.7 Molar H2O2 in 2M sucrose, two-week old honeybees, 24 Hour): 12.00 (2.32) | Mean (±se) Mortality ([1]; 1.7 Molar H2O2 in 2M sucrose, two-week old honeybees, 48 Hour): 16.25 (1.50) | Mean (±se) Mortality ([1]; 2.7 Molar H2O2 in 2M sucrose, one-week old honeybees, 24 Hour): 15.63 (1.19) | Mean (±se) Mortality ([1]; 2.7 Molar H2O2 in 2M sucrose, one-week old honeybees, 48 Hour): 19.88 (1.63) | Mean (±se) Mortality ([1]; 2.7 Molar H2O2 in 2M sucrose, two-week old honeybees, 24 Hour): 14.13 (2.12) | Mean (±se) Mortality ([1]; 2.7 Molar H2O2 in 2M sucrose, two-week old honeybees, 48 Hour): 19.50 (1.00) | Mean (±se) Mortality ([1]; 3.7 Molar H2O2 in 2M sucrose, one-week old honeybees, 24 Hour): 15.25 (1.70) | Mean (±se) Mortality ([1]; 3.7 Molar H2O2 in 2M sucrose, one-week old honeybees, 48 Hour): 21.50 (0.96) | Mean (±se) Mortality ([1]; 3.7 Molar H2O2 in 2M sucrose, two-week old honeybees, 24 Hour): 16.63 (1.92) | Mean (±se) Mortality ([1]; 3.7 Molar H2O2 in 2M sucrose, two-week old honeybees, 48 Hour): 20.75 (0.53) | Mean (±se) Mortality ([1]; 4.7 Molar H2O2 in 2M sucrose, one-week old honeybees, 24 Hour): 15.75 (1.53) | Mean (±se) Mortality ([1]; 4.7 Molar H2O2 in 2M sucrose, one-week old honeybees, 48 Hour): 21.38 (0.99) | Mean (±se) Mortality ([1]; 4.7 Molar H2O2 in 2M sucrose, two-week old honeybees, 24 Hour): 17.88 (1.51) | Mean (±se) Mortality ([1]; 4.7 Molar H2O2 in 2M sucrose, two-week old honeybees, 48 Hour): 20.13 (1.36) | honey bee mortality versus control group ([1]; all tested concentrations (0.7-4.7 M HP in 2M sucrose), Wilcoxon multiple comparisons P<0.001): significantly greater than mortality of honeybees in control group | X3, best estimate of EC5 concentration (Molar hydrogen peroxide) [1, 3]: 0.21 Molar | EC5 (Percent) [1, 3]: 0.57% | X3, best estimate of EC5 concentration (Molar hydrogen peroxide) [1, 4]: 0.15 Molar | EC5 (Percent) [1, 4]: 0.41% | Predicted LC50 Log10 Molar (±se) [1, 3]: 0.29 (0.02) Log10 Molar | Predicted LC50 (Molar) [1, 3]: 1.95 (0.09) Molar | Predicted LC50 (Percent) [1, 3]: 5.30 (0.25) Percent | Predicted LC50 Log10 Molar (±se) [1, 4]: −0.10 (0.03) Log10 Molar | Predicted LC50 (Molar) [1, 4]: 0.79 (0.05) Molar | Predicted LC50 (Percent) [1, 4]: 2.15 (0.14) Percent | Predicted LC50 Log10 Molar (±se) [1, 5]: 0.15 (0.03) Log10 Molar | Predicted LC50 (Molar) [1, 5]: 1.41 (0.10) Molar | Predicted LC50 (Percent) [1, 5]: 3.84 (0.28) Percent | Predicted LC50 Log10 Molar (±se) [1, 6]: −0.25 (0.06) Log10 Molar | Predicted LC50 (Molar) [1, 6]: 0.56 (0.08) Molar | Predicted LC50 (Percent) [1, 6]: 1.52 (0.22) Percent | X3, best estimate of EC5 concentration (Molar hydrogen peroxide) [1, 5]: 0.20 Molar | EC5 (Percent) [1, 5]: 0.54% | X3, best estimate of EC5 concentration (Molar hydrogen peroxide) [1, 6]: 0.15 Molar | EC5 (Percent) [1, 6]: 0.41% | Stability (degradation) of hydrogen peroxide in sugar solution ([2]; 0.1% and 1.0% H2O2 in 50% (w/w) sucrose, over 7 weeks): No degradation; also recorded: stable in a sugar solution | Hydrogen peroxide concentration in sugar solution ([2]; nominal 0.1% H2O2 in 50% (w/w) sucrose, 10 days): 0.134 | Hydrogen peroxide concentration in sugar solution ([2]; nominal 0.1% H2O2 in 50% (w/w) sucrose, 27 days): 0.134 | Hydrogen peroxide concentration in sugar solution ([2]; nominal 0.1% H2O2 in 50% (w/w) sucrose, 51 days): 0.130 | Hydrogen peroxide concentration in sugar solution ([2]; nominal 0.1% H2O2 in 50% (w/w) sucrose, time 0): 0.134 | Hydrogen peroxide concentration in sugar solution ([2]; nominal 1.0% H2O2 in 50% (w/w) sucrose, 10 days): 1.089 | Hydrogen peroxide concentration in sugar solution ([2]; nominal 1.0% H2O2 in 50% (w/w) sucrose, 27 days): 1.058 | Hydrogen peroxide concentration in sugar solution ([2]; nominal 1.0% H2O2 in 50% (w/w) sucrose, 51 days): 1.089 | Hydrogen peroxide concentration in sugar solution ([2]; nominal 1.0% H2O2 in 50% (w/w) sucrose, time 0): 1.077
